PubChem BioAssay AID330 (DTP/NCI, 2004)
Inconclusive results and toxic doses are left out.

System: P388 leukemia ip, CD2F1 mice, survival T/C
Test: NCI In Vivo Anticancer Drug Screen. Data for tumor model P388 Leukemia (intraperitoneal) in CD2F1 (CDF1) mice
Conditions: endpoint: median survival time, higher = longer survival
Procedure, shortened: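 Mice carrying the transplanted tumor received test compound or vehicle. Survival was recorded in each group, and the value is the treated-group measurement divided by that of the vehicle-treated control group.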

[1] = dose: 12.5 mg/kg/injection, schedule: Q01DX009 (ip), vehicle: saline with Tween-80
[2] = dose: 25.0 mg/kg/injection, schedule: Q01DX009 (ip), vehicle: saline with Tween-80
[3] = dose: 50.0 mg/kg/injection, schedule: Q01DX009 (ip), vehicle: saline with Tween-80
[4] = dose: 50.0 mg/kg/injection, schedule: Q01DX005 (ip), vehicle: Klucel (hydroxypropylcellulose) (HPC)
[5] = dose: 100.0 mg/kg/injection, schedule: Q01DX005 (ip), vehicle: Klucel (hydroxypropylcellulose) (HPC)
[6] = dose: 200.0 mg/kg/injection, schedule: Q01DX005 (ip), vehicle: Klucel (hydroxypropylcellulose) (HPC)
[7] = dose: 60.0 mg/kg/injection, schedule: Q01DX005 (ip), vehicle: saline with Tween-80
[8] = dose: 120.0 mg/kg/injection, schedule: Q01DX005 (ip), vehicle: saline with Tween-80
[9] = dose: 240.0 mg/kg/injection, schedule: Q01DX005 (ip), vehicle: saline with Tween-80

Question: With `COC1CCC2=C(C1)C(=O)CC1c3ccccc3CN21` (centres undefined) as the compound, how does the T/C [1] read?
Answer: The T/C was 100 % of control.

Question: And the T/C [2]?
Answer: Its T/C is 100 % of control.

Question: And the T/C [3]?
Answer: Its T/C is 100 % of control.

Question: For `O=Cc1nnc(-c2ccccc2)o1`, which T/C (dose: 12.5 mg/kg/injection, schedule: Q01DX009 (ip), vehicle: DMSO) is on record?
Answer: Its T/C is 90 % of control.

Question: What about the T/C (dose: 25.0 mg/kg/injection, schedule: Q01DX009 (ip), vehicle: DMSO) of the same compound?
Answer: The T/C was 98 % of control.

Question: What about the T/C (dose: 50.0 mg/kg/injection, schedule: Q01DX009 (ip), vehicle: DMSO) of the same compound?
Answer: Its T/C is 93 % of control.

Question: What does the source list for `CC(C)(C)NCC(CN1CCOCC1)C(=O)c1ccccc1` (centres undefined)?
Answer: T/C (dose: 6.25 mg/kg/injection, schedule: Q01DX005 (ip), vehicle: Klucel (hydroxypropylcellulose) (HPC)): 99 % of control; T/C (dose: 12.5 mg/kg/injection, schedule: Q01DX005 (ip), vehicle: Klucel (hydroxypropylcellulose) (HPC)): 96 % of control

Question: What does the source list for `CC[C@@H](C)[C@@H]1NC(=O)C(NC(=O)C(CC(C)C)N(C)C(=O)C2CCCN2C(=O)C(C)O)C(C)OC(=O)C(Cc2ccc(OC)cc2)N(C)C(=O)C2CCCN2C(=O)C(CC(C)C)NC(=O)C(C)C(=O)C(C(C)C)OC(=O)C[C@H]1O` (some centres undefined)?
Answer: T/C (dose: 0.03 mg/kg/injection, schedule: Q01DX009 (ip), vehicle: none): 171 % of control; T/C (dose: 10.0 micrograms/kg/injection, schedule: Q01DX009 (ip), vehicle: distilled water + alcohol): 112 % of control; T/C (dose: 20.0 micrograms/kg/injection, schedule: Q01DX009 (ip), vehicle: distilled water + alcohol): 112 % of control; T/C (dose: 80.0 micrograms/kg/injection, schedule: Q01DX009 (ip), vehicle: distilled water + alcohol): 155 % of control

Question: `CN(C)CCCN1CCC2(CCCCC2)CC1` was tested. Which T/C (dose: 50.0 mg/kg/injection, schedule: Q01DX005 (ip), vehicle: saline) did it give?
Answer: Its T/C is 94 % of control.

Question: What about the T/C (dose: 100.0 mg/kg/injection, schedule: Q01DX005 (ip), vehicle: saline) of the same compound?
Answer: The T/C was 98 % of control.

Question: What about the T/C (dose: 200.0 mg/kg/injection, schedule: Q01DX005 (ip), vehicle: saline) of the same compound?
Answer: Its T/C is 109 % of control.

Question: `CCOC(=O)CSC(=O)c1cccnc1Oc1ccccc1` was tested. Which T/C [4] did it give?
Answer: The T/C was 94 % of control.

Question: And the T/C [5]?
Answer: The T/C was 90 % of control.

Question: What about the T/C [6] of the same compound?
Answer: The T/C was 93 % of control.

Question: For `CN(C)c1c2c(oc(=O)c1Cl)-c1ccccc1SCC2`, which T/C [7] is on record?
Answer: The T/C was 101 % of control.

Question: And the T/C [8]?
Answer: Its T/C is 100 % of control.

Question: What about the T/C [9] of the same compound?
Answer: Its T/C is 91 % of control.

Question: How did the T/C (dose: 6.25 mg/kg/injection, schedule: Q01DX009 (ip), vehicle: saline with Tween-80) turn out when `CC1=NCC(C)c2ccccc21` (centres undefined) was run?
Answer: The T/C was 96 % of control.

Question: And the T/C [1]?
Answer: The T/C was 95 % of control.

Question: With `Cc1ccc(OP2(=O)NC3CCCCC3N2)cc1` (centres undefined) as the compound, how does the T/C [4] read?
Answer: The T/C was 99 % of control.

Question: What about the T/C [5] of the same compound?
Answer: The T/C was 93 % of control.

Question: What about the T/C [6] of the same compound?
Answer: The T/C was 96 % of control.

Question: What does the source list for `CCOc1ccncc1[N+](=O)[O-]`?
Answer: T/C (dose: 25.0 mg/kg/injection, schedule: Q01DX009 (ip), vehicle: saline sonified): 100 % of control; T/C (dose: 50.0 mg/kg/injection, schedule: Q01DX009 (ip), vehicle: saline sonified): 109 % of control; T/C [7]: 101 % of control; T/C (dose: 100.0 mg/kg/injection, schedule: Q01DX009 (ip), vehicle: saline sonified): 90 % of control; T/C [8]: 93 % of control; T/C [9]: 95 % of control

Question: `CCN(CC)C1=C(C)C(=O)[C@]2([Si](C)(C)C)[C@](OC)(c3ccc(C(F)(F)F)cc3)[C@]12[Si](C)(C)C` was tested. Which T/C (dose: 100.0 mg/kg/injection, schedule: Q01DX001 (ip), vehicle: saline with Tween-80) did it give?
Answer: Its T/C is 101 % of control.

Question: And the T/C (dose: 200.0 mg/kg/injection, schedule: Q01DX001 (ip), vehicle: saline with Tween-80)?
Answer: Its T/C is 100 % of control.

Question: And the T/C (dose: 400.0 mg/kg/injection, schedule: Q01DX001 (ip), vehicle: saline with Tween-80)?
Answer: Its T/C is 97 % of control.

Question: Which results are given for `c1ccc2c(c1)c1c(c3ccccc32)CN2CCCC2C1` (centres undefined)?
Answer: T/C [4]: 105 % of control; T/C [5]: 101 % of control; T/C [6]: 110 % of control

Question: Which T/C (dose: 25.0 mg/kg/injection, schedule: Q04DX003 (ip), vehicle: saline with Tween-80) does the source give for `N=C(N)N1CCNc2ccccc2C1` here?
Answer: Its T/C is 105 % of control.

Question: And the T/C (dose: 50.0 mg/kg/injection, schedule: Q04DX003 (ip), vehicle: saline with Tween-80)?
Answer: Its T/C is 99 % of control.

Question: What about the T/C (dose: 100.0 mg/kg/injection, schedule: Q04DX003 (ip), vehicle: saline with Tween-80) of the same compound?
Answer: The T/C was 104 % of control.

Question: With `O=C(N=Nc1c(O)[nH]c2ccccc12)C(=O)Nc1cccc(C(F)(F)F)c1` as the compound, how does the T/C [1] read?
Answer: Its T/C is 92 % of control.

Question: And the T/C [2]?
Answer: The T/C was 89 % of control.

Question: And the T/C [3]?
Answer: Its T/C is 86 % of control.
